# In PMC7660103, “Discovery of Novel 3-Cyanopyridines as Survivin Modulators and Apoptosis Inducers” (Molecules, 2020):
# Assays:
# [1] = tested on: hepatocellular carcinoma (HepG2) cells; test: SRB cytotoxicity assay, HepG2; assay type: cell-based, human; details: for IC50: SRB assay, 72 h, mean ± SD of three experiments; for Selectivity Index HepG2: SI = IC50 on WI-38/IC50 on HepG2
# Method: (§1) In the present work, sulforhodamine B (SRB) colorimetric assay was done to evaluate the cytotoxic activity of the synthesized 3-cyano pyridines 4a–4e, 5a–5e, and 6a–6e on three human cancer cell lines: prostate carcinoma (PC-3), breast cancer (MDA-MB-231) and hepatocellular carcinoma (HepG2) cell lines. 5-FU was used as a standard drug for comparison.
# (§2) Human cancer cells were obtained from Nawah Scientific Inc. (Mokatam, Cairo, Egypt). Cells were maintained in DMEM media containing […] streptomycin, 100 units/mL penicillin, and 10% heat-inactivated fetal bovine serum in humified, 5% (v/v) CO2 atmosphere at 37 °C.
# (§3) Cell viability was estimated using the SRB assay. Aliquots of 100 µL cell suspension (5 × 10^3 cells) in 96-well plates were incubated in complete media for 24 h. Cells were treated with a second aliquot of 100 µL media containing various concentrations of the tested compounds (0.01, 0.1, 1, 10, and 100 μM). After 72 h, cells were fixed by replacing media with 15 µL of 10% TCA and then incubated at 4 °C for 1 h. After that, TCA solution was removed, and the cells were washed 5 times with distilled water. Aliquots of 70 µL SRB solution (0.4% w/v) were added and incubated in a dark place at room temperature for 10 min. Plates were washed 3 times with 1% acetic acid and allowed to air dry overnight. Then, 150 µL of TRIS (10 mM) was added to dissolve protein-bound SRB stain. The absorbance was measured at 540 nm using BMG LABTECH®-FLUO star Omega microplate reader (Ortenberg, Germany).
# normal cell line WI-38 = test: SRB cytotoxicity assay, normal cell line WI-38; assay type: cell-based
# Method: The cytotoxicity of the newly synthesized compounds on the normal cell line WI-38 was also evaluated in order to examine the safety of these compounds.
# as §3
# [2] = tested on: breast cancer (MDA-MB-231) cells; test: SRB cytotoxicity assay, MDA-MB-231; assay type: cell-based, human; details: for IC50: SRB assay, 72 h, mean ± SD of three experiments; for Selectivity Index MDA-MB-231: SI = IC50 on WI-38/IC50 on MDA-MB-231
# Method: as §1, §2, §3
# [3] = tested on: prostate carcinoma (PC-3) cells; test: SRB cytotoxicity assay, PC-3; assay type: cell-based, human; details: for IC50: SRB assay, 72 h, mean ± SD of three experiments; for Selectivity Index PC-3: SI = IC50 on WI-38/IC50 on PC-3
# Method: as §1, §2, §3
# [4] = Homo sapiens, WI-38, mean ± SD of three experiments
SMILES,"IC50 ([1]; Homo sapiens, HepG2, 72 h) [µM]",Selectivity Index HepG2 [1],IC50 (normal cell line WI-38; [4]) [µM],"IC50 ([2]; Homo sapiens, MDA-MB-231, 72 h) [µM]",Selectivity Index MDA-MB-231 [2],"IC50 ([3]; Homo sapiens, PC-3) [µM]",Selectivity Index PC-3 [3],melting point [°C],IC50 [1] [µM],IC50 (normal cell line WI-38; mean ± SD of three experiments) [µM],IC50 [2] [µM],IC50 [3] [µM]
"N#Cc1c(-c2ccc(F)cc2)cc(-c2ccc(OCc3ccc(F)cc3)cc2)[nH]c1=S [Compound 6b, 6-(4-((4-Fluorobenzyl)oxy)phenyl)-4-(4-fluorophenyl)-2-thioxo-1,2-dihydropyridine-3-carbonitrile]",41 ± 0.69,5.01,206 ± 4.73,66.7 ± 0.12,3.08,60 ± 0.93,3.42,,,,,
"N#Cc1c(-c2ccc(F)cc2)cc(-c2ccc(OCc3ccc(F)cc3)cc2)nc1N [Compound 4b, 2-Amino-6-(4-((4-fluorobenzyl)oxy)phenyl)-4-(4-fluorophenyl)nicotinonitrile]",> 100,,127 ± 3.6,> 100,,> 100,,125 to 127,,,,
"COc1ccc(-c2cc(-c3ccc(OCc4ccc(F)cc4)cc3)nc(N)c2C#N)cc1 [Compound 4e, 2-Amino-6-(4-((4-fluorobenzyl)oxy)phenyl)-4-(4-methoxyphenyl)nicotinonitrile]",> 100,,94.7 ± 2.5,> 100,,> 100,,,,,,
"N#Cc1c(-c2ccc(Cl)cc2)cc(-c2ccc(OCc3ccc(F)cc3)cc2)nc1N [Compound 4c, 2-Amino-4-(4-chlorophenyl)-6-(4-((4-fluorobenzyl)oxy)phenyl)nicotinonitrile]",62 ± 0.61,2.20,137 ± 4.15,> 100,,> 100,,,,,,
"N#Cc1c(-c2ccc(F)cc2)cc(-c2ccc(OCc3ccc(F)cc3)cc2)[nH]c1=O [Compound 5b, 6-(4-((4-Fluorobenzyl)oxy)phenyl)-4-(4-fluorophenyl)-2-oxo-1,2-dihydropyridine-3-carbonitrile]",21.8 ± 0.67,6.02,132 ± 4.12,26.3 ± 0.73,4.99,34.2 ± 0.45,3.84,,,,,
"N#Cc1c(-c2ccc(Br)cc2)cc(-c2ccc(OCc3ccc(F)cc3)cc2)[nH]c1=O [Compound 5d, 4-(4-Bromophenyl)-6-(4-((4-fluorobenzyl)oxy)phenyl)-2-oxo-1,2-dihydropyridine-3-carbonitrile]",27.3 ± 0.74,6.63,181 ± 4.55,34.8 ± 0.9,5.20,30.2 ± 0.85,5.99,,,,,
"O=c1[nH]cc(F)c(=O)[nH]1 [Compound 5-FU, reference compound]",,,,,,,,,7.51 ± 0.11,7.91 ± 1.8,9.35 ± 0.74,8.83 ± 0.09
"N#Cc1c(-c2ccccc2)cc(-c2ccc(OCc3ccc(F)cc3)cc2)[nH]c1=S [Compound 6a, 6-(4-((4-Fluorobenzyl)oxy)phenyl)-4-phenyl-2-thioxo-1,2-dihydropyridine-3-carbonitrile]",60 ± 0.1,1.62,97.4 ± 2.88,72 ± 0.52,1.35,> 100,,,,,,
"N#Cc1c(-c2ccc(Br)cc2)cc(-c2ccc(OCc3ccc(F)cc3)cc2)[nH]c1=S [Compound 6d, 4-(4-Bromophenyl)-6-(4-((4-fluorobenzyl)oxy)phenyl)-2-thioxo-1,2-dihydropyridine-3-carbonitrile]",86 ± 0.15,1.69,146 ± 4.55,71.2 ± 0.56,2.04,99 ± 0.19,1.47,,,,,
"N#Cc1c(-c2ccccc2)cc(-c2ccc(OCc3ccc(F)cc3)cc2)nc1N [Compound 4a, 2-Amino-6-(4-((4-fluorobenzyl)oxy)phenyl)-4-phenylnicotinonitrile]",109 ± 0.35,1.50,164 ± 4.5,> 100,,> 100,,,,,,
"COc1ccc(-c2cc(-c3ccc(OCc4ccc(F)cc4)cc3)[nH]c(=S)c2C#N)cc1 [Compound 6e, 6-(4-((4-Fluorobenzyl)oxy)phenyl)-4-(4-methoxyphenyl)-2-thioxo-1,2-dihydropyridine-3-carbonitrile]",40.3,2.57,104 ± 3.16,23.4,4.43,35.9 ± 0.92,2.89,,40.3 ± 0.99,,23.4 ± 0.7,
"N#Cc1c(-c2ccc(Br)cc2)cc(-c2ccc(OCc3ccc(F)cc3)cc2)nc1N [Compound 4d, 2-Amino-4-(4-bromophenyl)-6-(4-((4-fluorobenzyl)oxy)phenyl)nicotinonitrile]",66 ± 0.12,1.57,104 ± 3.16,30 ± 0.18,3.46,53 ± 1.12,1.96,,,,,
"N#Cc1c(-c2ccc(Cl)cc2)cc(-c2ccc(OCc3ccc(F)cc3)cc2)[nH]c1=S [Compound 6c, 4-(4-Chlorophenyl)-6-(4-((4-fluorobenzyl)oxy)phenyl)-2-thioxo-1,2-dihydropyridine-3-carbonitrile]",38 ± 0.94,2.35,89.6 ± 2.75,42 ± 0.48,2.13,41.9 ± 0.61,2.13,,,,,
"N#Cc1c(-c2ccccc2)cc(-c2ccc(OCc3ccc(F)cc3)cc2)[nH]c1=O [Compound 5a, 6-(4-((4-Fluorobenzyl)oxy)phenyl)-2-oxo-4-phenyl-1,2-dihydropyridine-3-carbonitrile]",30 ± 0.59,5.80,174 ± 4.62,52 ± 0.4,3.34,47.5 ± 0.611,3.66,,,,,
